pIC50, pKd: −log10 of the molar value. The source made the active and inactive calls. The rule behind the calls is not given here.
How the values were obtained:
[1] = target: T1, Protein cereblon/Programmed cell death 1 ligand 1 (Homo sapiens) (UniProt Q9NZQ7+Q96SW2); assay: PROTAC activity at CRBN/PD-L1 in human HCC827 cells assessed as induction of PD-L1 protein degradation incubated for 24 hrs by Western blot analysis; type: cell-based; details: dose 0.25-10 µM
Mus musculus [2] = assay: Immunoregulatory activity in female C57BL/6 mouse model implanted with mouse MC38 cells assessed as increase in CXCL10 mRNA level in tumor at 10 to 20 mg/kg, ip administered once daily for 15 days by qPCR analysis; type: functional, organism-based; details: dose 10-20 mg/kg, time 15.0 day
[3] = target: T1, Protein cereblon/Programmed cell death 1 ligand 1 (Homo sapiens); assay: PROTAC activity at CRBN/PD-L1 in human HCC827 cell membrane assessed as decrease in PD-L1 expression in membrane incubated for 24 hrs by flow cytometric analysis; type: cell membranes; details: dose 2.5-10 µM
[4] = target: Protein cereblon/Programmed cell death 1 ligand 1 (Mus musculus) (UniProt Q9EP73+Q8C7D2); assay: PROTAC activity at CRBN/PD-L1 in mouse MC38 cells assessed as induction of PD-L1 protein degradation at 0.25 to 10 uM incubated for 24 hrs by Western blot analysis; type: cell-based; details: dose 0.25-10 µM
Sequence of Protein cereblon/Programmed cell death 1 ligand 1 (Mus musculus) (Q8C7D2 whole entry partner): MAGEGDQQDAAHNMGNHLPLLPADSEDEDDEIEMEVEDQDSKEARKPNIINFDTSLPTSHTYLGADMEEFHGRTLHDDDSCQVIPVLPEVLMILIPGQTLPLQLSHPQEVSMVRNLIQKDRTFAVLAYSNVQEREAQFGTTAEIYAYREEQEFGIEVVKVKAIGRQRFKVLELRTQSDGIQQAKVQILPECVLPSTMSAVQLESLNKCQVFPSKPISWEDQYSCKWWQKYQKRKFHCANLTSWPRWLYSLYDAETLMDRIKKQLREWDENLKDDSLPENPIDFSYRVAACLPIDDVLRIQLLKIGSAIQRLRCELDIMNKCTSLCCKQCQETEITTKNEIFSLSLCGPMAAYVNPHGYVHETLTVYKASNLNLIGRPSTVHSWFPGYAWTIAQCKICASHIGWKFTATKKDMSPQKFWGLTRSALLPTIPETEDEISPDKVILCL
Sequence of Protein cereblon/Programmed cell death 1 ligand 1 (Mus musculus) (Q9EP73 19-290 limits assumed): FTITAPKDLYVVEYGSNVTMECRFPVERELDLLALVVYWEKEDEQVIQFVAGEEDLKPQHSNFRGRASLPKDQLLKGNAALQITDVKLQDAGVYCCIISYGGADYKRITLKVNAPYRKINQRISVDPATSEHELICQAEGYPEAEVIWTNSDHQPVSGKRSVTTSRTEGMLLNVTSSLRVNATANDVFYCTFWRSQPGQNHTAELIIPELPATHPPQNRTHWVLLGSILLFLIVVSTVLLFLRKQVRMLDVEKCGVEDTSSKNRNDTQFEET

[5] = target: T1, Protein cereblon/Programmed cell death 1 ligand 1 (Homo sapiens); assay: PROTAC activity at CRBN/PD-L1 in human HCC827 cell membrane assessed as decrease in PD-L1 expression in membrane at 10 uM incubated for 24 hrs by Western blotting; type: cell membranes
[6] = target: T1, Protein cereblon/Programmed cell death 1 ligand 1 (Homo sapiens); assay: PROTAC activity at CRBN/PD-L1 in human HCC827 cells assessed as induction of PD-L1 degradation at 10 uM preincubated with bafilomycin A1 for 4 hrs followed by compound addition and measured after 24 hrs by Western blotting; type: cell-based
[7] = target: T1, Protein cereblon/Programmed cell death 1 ligand 1 (Homo sapiens); assay: PROTAC activity at CRBN/PD-L1 in human HCC827 cell cytoplasm assessed as decrease in PD-L1 expression in cytoplasm at 10 uM incubated for 24 hrs by Western blotting; type: subcellular
Mus musculus [8] = assay: Immunoregulatory activity in female C57BL/6 mouse model implanted with mouse MC38 cells assessed as increase in perforin expression at 10 to 20 mg/kg, ip administered once daily for 15 days by hematoxylin staining based immunohistochemistry; type: functional, organism-based; details: dose 10-20 mg/kg, time 15.0 day
HCC827 [9] = assay: Antitumor activity against human HCC827 cells co-cultured with PMA-activated human Jurkat T cells assessed as T cell mediated tumor killing by measuring survival rate at 5 uM incubated for 24 hrs by CCK8 assay relative to control; type: functional; details: read-out: Survival
Mus musculus [10] = assay: Immunoregulatory activity in female C57BL/6 mouse model implanted with mouse MC38 cells assessed as increase in CXCL9 mRNA level in tumor at 10 to 20 mg/kg, ip administered once daily for 15 days by qPCR analysis; type: functional, organism-based; details: dose 10-20 mg/kg, time 15.0 day
[11] = target: T1, Protein cereblon/Programmed cell death 1 ligand 1 (Homo sapiens); assay: PROTAC activity at CRBN/PD-L1 in human HCC827 cells assessed as induction of PD-L1 protein degradation at 10 uM measured within 24 hrs by Western blot analysis relative to control; type: cell-based
Mus musculus [12] = assay: In vivo PROTAC activity at CRBN/PD-L1 in female C57BL/6 mouse implanted with mouse MC38 cells assessed as decrease in PD-L1 protein expression in tumor at 10 to 20 mg/kg, ip administered once daily for 15 days by hematoxylin staining based immunohistochemistry; type: functional, organism-based; details: dose 10-20 mg/kg, time 15.0 day
[13] = target: T1, Protein cereblon/Programmed cell death 1 ligand 1 (Homo sapiens); assay: (§1) PROTAC activity at CRBN/PD-L1 in human HCC827 cells assessed as induction of PD-L1 degradation at 10 uM preincubated with pomalidomide for 4 hrs followed by compound addition and measured after 24 hrs by Western blotting; type: cell-based
[14] = target: T1, Protein cereblon/Programmed cell death 1 ligand 1 (Homo sapiens); assay: PROTAC activity at CRBN/PD-L1 in human SK-N-AS cells assessed as induction of PD-L1 protein degradation at 0.25 to 10 uM incubated for 24 hrs by Western blot analysis; type: cell-based; details: dose 0.25-10 µM
[15] = target: T1, Protein cereblon/Programmed cell death 1 ligand 1 (Homo sapiens); assay: PROTAC activity at CRBN/PD-L1 in human HCC827 cells assessed as induction of PD-L1 internalization at cell membrane by measuring increase in fluorescence intensity around nucleus at 10 uM incubated for 12 hrs by DAPI immunostaining based confocal scanning microscopic analysis
[16] = target: Programmed cell death protein 1/Programmed cell death 1 ligand 1 (Homo sapiens, UniProt Q9NZQ7); assay: Inhibition of human PD-1/PD-L1 interaction by HTRF assay; type: protein-complex assay
Sequence of Programmed cell death protein 1/Programmed cell death 1 ligand 1 (Q15116 whole entry): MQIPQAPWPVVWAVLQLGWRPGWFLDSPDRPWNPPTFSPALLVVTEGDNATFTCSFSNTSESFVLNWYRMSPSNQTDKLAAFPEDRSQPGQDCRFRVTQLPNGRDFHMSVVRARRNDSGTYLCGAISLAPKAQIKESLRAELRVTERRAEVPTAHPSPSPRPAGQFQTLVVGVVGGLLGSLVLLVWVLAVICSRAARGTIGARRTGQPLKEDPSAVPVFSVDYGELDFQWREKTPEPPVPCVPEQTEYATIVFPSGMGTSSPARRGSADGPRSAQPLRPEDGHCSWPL
Sequence of Programmed cell death protein 1/Programmed cell death 1 ligand 1 (Q9NZQ7 whole entry): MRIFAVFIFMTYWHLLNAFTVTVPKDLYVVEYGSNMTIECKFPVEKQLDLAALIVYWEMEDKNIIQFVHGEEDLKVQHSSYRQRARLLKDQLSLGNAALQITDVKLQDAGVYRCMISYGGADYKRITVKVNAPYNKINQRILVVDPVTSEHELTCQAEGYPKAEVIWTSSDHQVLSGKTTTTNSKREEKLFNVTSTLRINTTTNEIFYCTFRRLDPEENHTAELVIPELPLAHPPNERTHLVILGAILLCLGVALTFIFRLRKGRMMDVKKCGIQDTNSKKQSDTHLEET

MC-38 [17] = assay: Antitumor activity against mouse MC38 cells implanted in female C57BL/6 mouse model assessed as tumor growth inhibition at 10 mg/kg, ip administered once daily for 15 days relative to control; type: functional; details: MC-38, 360 h, time 15 day, read-out: TGI
[18] = Binding affinity to C-terminal fused with Fc region of human IgG1 recombinant human PD-L1 extracellular domain (1 to 239 residues) extracted from HEK293 cells assessed as dissociation constant by MST analysis; type: cell-free
[19] = Toxicity in female C57BL/6 mouse implanted with mouse MC38 cells assessed as effect on body weight at 10 to 20 mg/kg, ip administered once daily for 15 days; type: organism-based; details: in vivo, 360 h, dose 10-20 mg/kg, time 15 day
Mus musculus [20] = assay: Immunoregulatory activity in female C57BL/6 mouse model implanted with mouse MC38 cells assessed as increase in CD8+/CD4+ ratio in tumor at 10 to 20 mg/kg, ip administered once daily for 15 days by flow cytometric analysis; type: functional, organism-based; details: dose 10-20 mg/kg, time 15.0 day
Mus musculus [21] = assay: Immunoregulatory activity in female C57BL/6 mouse model implanted with mouse MC38 cells assessed as increase in granzyme B expression at 10 to 20 mg/kg, ip administered once daily for 15 days by hematoxylin staining based immunohistochemistry; type: functional, organism-based; details: dose 10-20 mg/kg, time 15.0 day
[22] = target: T1, Protein cereblon/Programmed cell death 1 ligand 1 (Homo sapiens); assay: PROTAC activity at CRBN/PD-L1 in human 786-0 cells assessed as induction of PD-L1 protein degradation at 0.25 to 10 uM incubated for 24 hrs by Western blot analysis; type: cell-based; details: dose 0.25-10 µM
[23] = target: T1, Protein cereblon/Programmed cell death 1 ligand 1 (Homo sapiens); assay: PROTAC activity at CRBN/PD-L1 in human HCC827 cells assessed as induction of PD-L1 degradation at 10 uM preincubated with MG132 for 4 hrs followed by compound addition and measured after 24 hrs by Western blotting; type: cell-based
[24] = target: T1, Protein cereblon/Programmed cell death 1 ligand 1 (Homo sapiens); assay: as §1, with “5-((5-((2-chloro-2'-fluoro-[1,1'-biphenyl]-3-yl)methoxy)-2-(((2-hydroxyethyl)amino)methyl)phenoxy)methyl)nicotinonitrile” for “pomalidomide”; type: cell-based
Mus musculus [25] = assay: Immunoregulatory activity in female C57BL/6 mouse model implanted with mouse MC38 cells assessed as increase in CD8+/CD4+ ratio in lymph node at 10 to 20 mg/kg, ip administered once daily for 15 days by flow cytometric analysis; type: functional, organism-based; details: dose 10-20 mg/kg, time 15.0 day
[26] = target: T1, Protein cereblon/Programmed cell death 1 ligand 1 (Homo sapiens); assay: PROTAC activity at CRBN/PD-L1 in human HCC827 cells assessed as induction of PD-L1 internalization at cell membrane by measuring decrease in fluorescence intensity of cell membrane at 10 uM incubated for 12 to 24 hrs by DAPI immunostaining based confocal scanning microscopic analysis; details: time 12-24 hrs
MC-38 [27] = assay: Antitumor activity against mouse MC38 cells implanted in female C57BL/6 mouse model assessed as tumor growth inhibition at 20 mg/kg, ip administered once daily for 15 days relative to control; type: functional; details: MC-38, 360 h, time 15 day, read-out: TGI
Mus musculus [28] = assay: Immunoregulatory activity in female C57BL/6 mouse model implanted with mouse MC38 cells assessed as increase in CXCR3 mRNA level in tumor at 10 to 20 mg/kg, ip administered once daily for 15 days by qPCR analysis; type: functional, organism-based; details: dose 10-20 mg/kg, time 15.0 day
[29] = target: T1, Protein cereblon/Programmed cell death 1 ligand 1 (Homo sapiens); assay: PROTAC activity at CRBN/PD-L1 in human HCC827 cells assessed as induction of PD-L1 protein degradation at 20 uM measured within 24 hrs by Western blot analysis relative to control; type: cell-based
HCC827 [30] = assay: Antitumor activity against human HCC827 cells co-cultured with PMA-activated human Jurkat T cells assessed as T cell mediated tumor killing by measuring survival rate at 10 uM incubated for 24 hrs by CCK8 assay relative to control; type: functional; details: read-out: Survival
HCC827 [31] = assay: Effect on PD-L1 protein expression in human HCC827 cells at 10 uM incubated for 24 hrs by Western blot analysis; type: functional, cell-based
[32] = target: von Hippel-Lindau disease tumor suppressor/Programmed cell death 1 ligand 1 (Homo sapiens) (UniProt P40337+Q9NZQ7); assay: PROTAC activity at VHL/PD-L1 in human HCC827 cells assessed as induction of PD-L1 protein degradation incubated for 24 hrs by Western blot analysis; type: cell-based; details: dose 0.25-10 µM
Sequence of von Hippel-Lindau disease tumor suppressor/Programmed cell death 1 ligand 1 (Homo sapiens) (P40337 whole entry, looked up): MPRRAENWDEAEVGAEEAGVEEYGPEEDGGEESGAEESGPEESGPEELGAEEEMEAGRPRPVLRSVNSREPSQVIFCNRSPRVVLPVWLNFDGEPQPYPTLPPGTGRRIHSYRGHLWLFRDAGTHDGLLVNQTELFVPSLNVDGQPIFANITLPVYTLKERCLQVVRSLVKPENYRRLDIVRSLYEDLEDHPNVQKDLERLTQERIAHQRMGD
Sequence of von Hippel-Lindau disease tumor suppressor/Programmed cell death 1 ligand 1 (Homo sapiens) (Q9NZQ7 whole entry, looked up): as the sequence (Q9NZQ7 whole entry) above

T1 sequence (Q96SW2 whole entry, looked up): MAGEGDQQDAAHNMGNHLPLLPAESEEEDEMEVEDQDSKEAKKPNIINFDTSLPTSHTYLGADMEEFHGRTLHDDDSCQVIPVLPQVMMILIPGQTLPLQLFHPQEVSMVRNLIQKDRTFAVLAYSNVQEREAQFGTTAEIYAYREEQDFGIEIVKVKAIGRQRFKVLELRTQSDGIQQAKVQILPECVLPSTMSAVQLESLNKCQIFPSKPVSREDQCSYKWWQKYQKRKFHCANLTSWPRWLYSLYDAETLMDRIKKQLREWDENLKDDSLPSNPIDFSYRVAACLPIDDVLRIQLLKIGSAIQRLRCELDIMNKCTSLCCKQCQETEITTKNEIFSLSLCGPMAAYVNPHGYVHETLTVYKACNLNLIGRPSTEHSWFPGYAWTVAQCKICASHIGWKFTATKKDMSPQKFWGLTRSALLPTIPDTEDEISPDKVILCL
T1 sequence (Q9NZQ7 whole entry, looked up): as the sequence (Q9NZQ7 whole entry) above

For `N#Cc1cncc(COc2cc(OCc3cccc(-c4ccccc4F)c3Cl)ccc2CNCCOCCOCCOCCNc2cccc3c2C(=O)N(C2CCC(=O)NC2=O)C3=O)c1` (stereo not given), the Activity [1] was “Dose-Dependent Effect”, the Activity (Mus musculus [2]) was “Active” and the Activity [3] was “Dose-Dependent Effect”. The Activity [4] was “Active”, the Activity [5] was “Active” and the Activity [6] was “inactive”. For the same compound, the Activity [7] was “Active”, the Activity (Mus musculus [8]) was “Active” and the viability at 5 µM (HCC827 [9]) was 73.2%. For the same compound, the Activity (Mus musculus [10]) was “Active”, the Activity [11] was 58% and the Activity (Mus musculus [12]) was “Active”. For the same compound, the Activity [13] was “inactive”, the Activity [14] was “Active” and the Activity [15] was “Active”. The pIC50 [16] was 6.66, the inhibition in vivo at 10 mg/kg (MC-38 [17]) was 34.6% and the pKd [18] was 6.60. For the same compound, the Activity [19] was “Non-Toxic”, the Activity (Mus musculus [20]) was “Active” and the Activity (Mus musculus [21]) was “Active”. For the same compound, the Activity [22] was “Active”, the Activity [23] was “inactive” and the Activity [24] was “inactive”. For the same compound, the Activity (Mus musculus [25]) was “Active”, the Activity [26] was “Active” and the inhibition in vivo at 20 mg/kg (MC-38 [27]) was 54.9%. For the same compound, the Activity (Mus musculus [28]) was “Active”.
With `N#Cc1cncc(COc2cc(OCc3cccc(-c4ccccc4F)c3Cl)ccc2CNCCOCCOCCNc2cccc3c2C(=O)N(C2CCC(=O)NC2=O)C3=O)c1` (stereo not given) the Activity [1] was “Dose-Dependent Effect”, the Activity (Mus musculus [2]) was “Active” and the Activity [3] was “Dose-Dependent Effect”. The Activity [4] was “Active”, the Activity [5] was “Active” and the Activity [6] was “inactive”. The Activity [7] was “Active”, the Activity (Mus musculus [8]) was “Active” and the Activity (Mus musculus [10]) was “Active”. For the same compound, the Activity (Mus musculus [12]) was “Active”, the Activity [13] was “inactive” and the Activity [14] was “Active”. The Activity [29] was 60.9%, the Activity [15] was “Active” and the pIC50 [16] was 6.70. The inhibition in vivo at 10 mg/kg (MC-38 [17]) was 48.7%, the pKd [18] was 6.52 and the viability at 10 µM (HCC827 [30]) was 50.6%. The Activity [19] was “Non-Toxic”, the Activity (Mus musculus [20]) was “Active” and the Activity (Mus musculus [21]) was “Active”. The Activity [22] was “Active”, the Activity [23] was “inactive” and the Activity [24] was “inactive”. The Activity (Mus musculus [25]) was “Active”, the Activity [26] was “Active” and the inhibition in vivo at 20 mg/kg (MC-38 [27]) was 57.4%. For the same compound, the Activity (Mus musculus [28]) was “Active”.
With `N#Cc1cncc(COc2cc(OCc3cccc(-c4ccccc4F)c3Cl)ccc2CNCCCCCNc2cccc3c2C(=O)N(C2CCC(=O)NC2=O)C3=O)c1` (stereo not given) the Activity [1] was “Dose-Dependent Effect”.
In the case of `Nc1cccc2c1C(=O)N(C1CCC(=O)NC1=O)C2=O` (stereo not given), the Activity (HCC827 [31]) was “inactive”.
In the case of `Cc1ncsc1-c1ccc([C@H](C)NC(=O)[C@@H]2C[C@@H](O)CN2C(=O)[C@@H](NC(=O)CCOCCOCCOCCOCCNCc2ccc(OCc3cccc(-c4ccccc4F)c3Cl)cc2OCc2cncc(C#N)c2)C(C)(C)C)cc1`, the Activity [32] was “Dose-Dependent Effect”.
With `Cc1ncsc1-c1ccc([C@H](C)NC(=O)[C@@H]2C[C@@H](O)CN2C(=O)[C@@H](NC(=O)CCCNCc2ccc(OCc3cccc(-c4ccccc4F)c3Cl)cc2OCc2cncc(C#N)c2)C(C)(C)C)cc1` the Activity [32] was “Dose-Dependent Effect”.
For `N#Cc1cncc(COc2cc(OCc3cccc(-c4ccccc4F)c3Cl)ccc2CNCCO)c1`, the Activity (HCC827 [31]) was “inactive” and the pKd [18] was 7.69.
In the case of `N#Cc1cncc(COc2cc(OCc3cccc(-c4ccccc4F)c3Cl)ccc2CNCCCCCCCCNc2cccc3c2C(=O)N(C2CCC(=O)NC2=O)C3=O)c1` (stereo not given), the Activity [1] was “Dose-Dependent Effect”.
In the case of `N#Cc1cncc(COc2cc(OCc3cccc(-c4ccccc4F)c3Cl)ccc2CNCc2cn(CCCCCC(=O)Nc3cccc4c3CN(C3CCC(=O)NC3=O)C4=O)nn2)c1` (stereo not given), the Activity [1] was “Dose-Dependent Effect”.
In the case of `N#Cc1cncc(COc2cc(OCC3C=CC=C(c4ccccc4F)C3Cl)ccc2CNCCOCCOCCOCCOCCOCCOCCC(=O)Nc2cccc3c2CN(C2CCC(=O)NC2=O)C3=O)c1` (stereo not given), the Activity [1] was “Dose-Dependent Effect”.
